How the values were obtained:
[1] = test system: Plasmodium falciparum D6 strain (chloroquine sensitive); experiment: In vitro screening against Plasmodium falciparum, 3H-hypoxanthine incorporation, D6 strain; format: cell-based; details: 66 hours incubation
Source text: (§1) Two parasite strains—W2 resistant to chloroquine, and D6 sensitive to chloroquine but resistant to mefloquine were used. In Table IV below, the best compounds should show no cross resistance between the two strains.
(§2) The assay relies on incorporation of radiolabelled hypoxanthine by the parasite and inhibition of incorporation is attributed to activity of known or candidate antimalarial drugs. For each assay, proven antimalarials such as chloroquine, mefloquine, quinine, artemisinin and pyrimethamine were used as controls. The incubation period was 66 hours, and the starting parasitemia was 0.2% with 1% hematocrit. The medium was an RPMI-1640 culture with no folate or p-aminobenzoic acid. Albumax rather than 10% normal heat inactivated human plasma was used as, with Albumax, less protein binding is observed, and compounds elicit slightly higher activities in this model. If a compound was submitted with no prior knowledge of activity, it was dissolved directly in dimethyl sulphoxide (DMSO), and diluted 400 fold with complete culture medium. The unknown compound was started at a maximum concentration of 50,000 ng ml^−1 and sequentially diluted 2-fold for 11 times to give a concentration range of […]. These dilutions were performed automatically by a Biomek 1000 Liquid Handling System in 96-well microtiter plates. The diluted drugs were then transferred to test plates, 200 μl of parasitized erythrocytes were added, and incubated at 37° C. in a controlled environment of 5% CO2, 5% O2 and 90% N2. After 42 hours, 25 μl of ^3H-hypoxanthine was added, and the plates incubated for an additional 24 hours. After 66 hours, the plates were frozen at −70° C. to lyse the red cells, and then thawed and harvested onto glass fiber filter mats in a 96-well harvester. The filter mats were then counted in a scintillation counter. For each drug, the concentration response profile was determined and 50%, 90% and 10% inhibitory concentrations (IC50 IC90 and IC10) were determined by a non-linear logistic dose response analysis program.
(§3) A prescreen format can be used wherein a 3-dilution assay may be used to determine activity at high medium or low concentrations. The concentrations were selected as 50,000, 500 and 50 ng ml^−1. These were performed in duplicate on a 96-well format plate with 14 test compounds and one known (standard) compound per plate. The system was automated with a Biomek diluter for mixing and diluting the drugs, and adding drugs and parasites to a test plate. In the prescreen format, if the ANALYSIS FIELD (AP) has a “<”, then the compound was “very active” and the IC values are most likely to be below the last dilution value (in nanograms/ml), which is listed next to AF. In most cases, these compounds were run again at lower starting concentration to determine the true IC value. If the AF has a “>”, then the IC value is greater than the prescreen dilution value; thus “AF>250” means that the IC value is greater than 250 ng ml^−1 and no further screening is carried out. In such cases, values of 0.00 are entered for IC values.

[2] = test system: Plasmodium falciparum W2 strain (chloroquine resistant); experiment: In vitro screening against Plasmodium falciparum, 3H-hypoxanthine incorporation, W2 strain; format: cell-based; details: 66 hours incubation
Source text: as §1, §2, §3

[3] = test system: Eimeria tenella; experiment: Screening against Eimeria tenella cell cultures in vitro (chick kidney cells); format: cell-based; parameters: key: 3 = very active no intact parasites/well; 2 = active 1-6 parasites per well; 1 = weakly active up to 1 intact schizont/optical field of vision; 0 = inactive >1 intact schizont/optical field of vision; T = cytotoxic host cells are dead; details: day 5 post infection
Method: Cells from kidneys of 19 day old chicks are cultured as monolayers in 96-well plates (Falcon 3872) in a medium of Hanks lactalbumine hydrolysate, 5% fetal calf serum, 1% glutamine and 1% non-essential amino acids. After two days at 42° C. under 5% CO2, the culture was infected with excised sporozoites of Eimeria tenella at about […] per well. Test compounds were dissolved in DKSO and diluted with culture medium to a maximum end concentration of 10 μg ml^−1. The dilution steps were 1:10. On day 5 post infection, the cultures were evaluated under a microscope at 100-fold magnification and the condition of the host cells and the amount of intact schizonts and free merozoites was determined.

[4] = test system: Neospora caninum; experiment: Screening against Neospora caninum cell cultures in vitro (VERO or ED host cells); format: cell-based; parameters: key: 0 = no effect monolayer completely destroyed; 1 = weak effect monolayer partly destroyed, parasite clumps can be seen; 2 = full effect monolayer intact, no tachyzoites observable; T = cytotoxic cells are dead, lysed; details: microscopic evaluation 4 days after treatment
Method: Screening was conducted in 96-well plates (Falcon 3872). A monolayer of host cells (VERO or ED) were placed on a cell culture plate. Non-infected mono-layers of cells were cultured in two 50 ml tissue culture bottles ([…] cell culture area). The cell layer was detached with trypsin-EDTA (5 ml. Gibco 45300-019) in a CO2-culture cupboard at 37° C. After 10 minutes, most of the cells were detached. The cells were transferred with a 5 ml pipette into a 50 ml centrifuge tube (Greiner, B769331) containing about 1 ml warmed fetal calf serum. After centrifugation for 5 minutes at 1500 rpm (Varifuge 3.0, Heraeus), the liquid was removed and the cell pellet suspended in RPMI medium (100 ml, 95% RPMI 1640, 2% FCS, 1% L-glutamine, 1% sodium hydrogen carbonate, 1% penicillin/streptomycin). The cell suspension was pipetted into six 96-well plates at 150 μl per well. The coated cell culture plates were placed in an incubation cupboard at 37° C. under 5% CO2 for 24 hours. The cells were then infected with Neospora caninum tachyzoites at a concentration of 48,000 tachyzoites per well. This was followed by incubation at 37° C. under 5% CO2 for 24 hours.
The test compounds (0.5-1.5 mg) were weighed into 1.5 ml eppendorf vessels and dissolved in 1 ml dimethyl sulphoxide, corresponding to a dilution of about 1×10^−3 g ml^−1. The medium used for further dilution consisted of 87% RPMI 1640, 10% FCS, 1% L-glutamine, 1% sodium hydrogen carbonate, 1% penicillin/streptomycin. In the first screening, concentrations of […], […] and 10^−7 g ml^−1 were used. The diluted preparations were then transferred to the cell culture plates at a volume of 150 μl per well after 24 hour infection with Neospora caninum. For the first row, untreated medium was used; this row contained infected and uninfected cells as controls. The cell plate was incubated at 37° C. under 5% CO2 for 5 days. Microscopic evaluation was conducted 4 days after treatment and 5 days after infection at a magnification of 25×10 in an inverse microscope according to the following evaluation scheme.

[5] = test system: Neospora; details: administered via drinking water; cited from earlier work

Compound	In vitro activity: (IC10) [1] [ng/mL]	In vitro activity: IC50 [1] [ng/mL]	In vitro activity: IC90 [1] [ng/mL]	In vitro activity: (IC10) [2] [ng/mL]	In vitro activity: IC50 [2] [ng/mL]	In vitro activity: IC90 [2] [ng/mL]	Effectiveness rating against Eimeria tenella ([3]; Dose 10^−5 g/ml)	Effectiveness rating against Eimeria tenella ([3]; Dose 10^−6 g/ml)	Effectiveness rating against Eimeria tenella ([3]; Dose 10^−7 g/ml)	Effectiveness rating against Eimeria tenella ([3]; Dose 10^−8 g/ml)	Evaluation of effect against Neospora caninum ([4]; Dose 10^−5 g/ml)	Evaluation of effect against Neospora caninum ([4]; Dose 10^−6 g/ml)	Evaluation of effect against Neospora caninum ([4]; Dose 10^−7 g/ml)	Evaluation of effect against Neospora caninum ([4]; Dose 10^−8 g/ml)	efficacy against neosporosis in experimentally infected mice [5]
CC1CCC2C(C)C(c3ccccc3)OC3OC4(C)CCC1C32OO4 (stereo not drawn) [Example 2, 10β-phenyl-10-deoxo-10-dihydroartemisinin]	0.53	0.73	0.99	0.19	0.31	0.52	2 (2 = active 1-6 parasites per well)	2 (2 = active 1-6 parasites per well)	1 (1 = weakly active up to 1 intact schizont/optical field of vision)	0 (0 = inactive >1 intact schizont/optical field of vision)	1	1	0	–	–
CC1CCC2C(C)C(Nc3ccccc3)OC3OC4(C)CCC1C32OO4 (centres unmarked) [Example 15]	0.48	0.61	0.78	0.52	0.66	0.84	2 (2 = active 1-6 parasites per well)	2 (2 = active 1-6 parasites per well)	1 (1 = weakly active up to 1 intact schizont/optical field of vision)	0 (0 = inactive >1 intact schizont/optical field of vision)	–	1	1	0	–
CC1CCC2C(C)C(Nc3ccc(I)cc3)OC3OC4(C)CCC1C32OO4 (centres unmarked) [Example 19]	0.19	0.39	0.80	0.25	0.33	0.43	T	T	1 (1 = weakly active up to 1 intact schizont/optical field of vision)	0 (0 = inactive >1 intact schizont/optical field of vision)	T	0	–	–	–
CC1CCC2C(C)C(Nc3ccc(-c4ccccc4)cc3)OC3OC4(C)CCC1C32OO4 (centres unmarked) [Example 20]	6.84	9.40	12.93	2.64	5.81	12.77	T	–	0 (0 = inactive >1 intact schizont/optical field of vision)	–	–	1	1	0	–
CC1CCC2C(C)C(Nc3ccc(Br)cc3)OC3OC4(C)CCC1C32OO4 (centres unmarked) [Example 18]	0.09	0.28	0.82	0.17	0.23	0.33	T	T	1 (1 = weakly active up to 1 intact schizont/optical field of vision)	0 (0 = inactive >1 intact schizont/optical field of vision)	2	1	0	–	–
CCCNC1OC2OC3(C)CCC4C(C)CCC(C1C)C24OO3 (centres unmarked) [Example 24]	0.65	1.17	2.10	0.46	0.77	1.30	2 (2 = active 1-6 parasites per well)	1 (1 = weakly active up to 1 intact schizont/optical field of vision)	0 (0 = inactive >1 intact schizont/optical field of vision)	–	1	0	–	–	–
Nc1ccc(S(=O)(=O)Nc2ncccn2)cc1 [Sulfadiazin]	–	–	–	–	–	–	–	–	–	–	–	–	–	–	effective in experimentally infected mice, only if the treatment was prophylactic
